The subject of series [1] is hepatitis C virus genotype 1b Con1 replicon. Put plainly: HCV replicon assay, replicon RNA by RT-qPCR in Huh 9-13 cells. The note with it: 50% inhibition of HCV replicon replication, 3 dose-response curves. It is filed as cell-based.
Description: For the evaluation of antiviral effects, assay medium was aspirated and the plates with dry monolayer were stored at −80° C. awaiting extraction. Following thawing of the plates at room temperature, the cell monolayer was lysed with 100 μl of cell-to-cDNA lysis buffer (Invitrogen). Lysis of the cells was allowed to proceed for 10 min at room temperature after which all liquid was transferred to a PCR plate (Axygen). The PCR plate was incubated for 15 min at 75° C. […] The lysate was diluted 1:2 with RNase/DNase-free water, after which 5 μl was transferred to the real-time PCR plate (Applied Biosystems).
Replicon RNA content was quantified using a real-time quantitative one-step RT-PCR method (RT-qPCR): Low Rox One-Step RT-qPCR master mix, Abgene). […] The fluorogenic probe was 5′-[sequence]-3′. The analysis of the samples were performed using a SDS7500F (Applied Biosystems, standard thermocycling profile: 30 min at 48° C., 10 min at 95° C., 40 cycles of 15 sec at 95° C. and 1 min at 60° C.) after which replicon RNA quantities were converted to percentage of untreated controls.
Series [2] can be described thus: Cytostatic/cytotoxic effect, MTT (MTS) assay in Huh 9-13 cells. The note with it: human, Huh 9-13 cells containing the HCV genotype 1b Con1 replicon, metabolic activity reduced to 50% of untreated cells. It is filed as cell-based. An excerpt:
Assays used Huh 9-13 containing the hepatitis C virus genotype 1b Con1 replicon (Lohmann et al. 2001. J. Virol. 75:1437-1449; and Lohmann et al. 1999. Science. 285:110-113). Cells were sub-cultured in cell growth medium DMEM supplemented with 10% FCS, 1% non-essential amino acids, 1% penicillin/streptomycin and 2% Geneticin (Invitrogen) at a ratio of 1:4-1:5 and grown for 3-4 days in 75 cm^2 tissue culture flasks (Techno Plastic Products), were harvested and seeded in assay medium (DMEM, 10% FCS, 1% non-essential amino acids, 1% penicillin/streptomycin) at a density of 5 000 cells/well (100 μl/well) in 96-well tissue culture microtiter plates (Falcon, Beckton Dickinson) for evaluation of cytostatic/cytotoxic and antiviral effect. The microtiter plates were incubated overnight (37° C., 5% CO2, 95-99% relative humidity), yielding a non-confluent cell monolayer.
Cell density and cytostatic effects were estimated in parallel cultures in regular 96-well plates (Beckton-Dickinson) using the MTT assay (CellTiter 96 AQueous Non-Radioactive Cell Proliferation Assay, Promega). In this assay, 3-(4,5-dimethyl-thiazol-2-yl)-5-(3-carboxymethoxy-phenyl)-2-(4-sulfophenyl)-2H-tetrazolium (MTS) is bioreduced to a formazan that is quantified at 498 nm in a plate reader. Formazan production is directly correlated with number of life cells. Absorbance was measured at a wavelength of 498 nm (Safire^2, Tecan) and optical densities (OD values) were converted to percentage of untreated controls.
The compounds were dissolved in DMSO at a concentration of 4 mmole/L. Stock solutions were immediately used to set up the experiments. The compounds were tested at 24 different concentrations ranging from 0.0001 μmole/L to 100 μmole/L. The highest concentration of DMSO in the assay was determined to be 2.5% (at 100 μM final concentration of the compound). During the assay setup, the DMSO percentage decreased concomitantly with decrease in concentration of the compound.
The EC50 (value derived from the dose-response curve) represents the concentration at which 50% inhibition of viral replication is observed. The CC50 (value derived from the dose-response curve) represents the concentration at which the metabolic activity of the cells is reduced to 50% of the metabolic activity of untreated cells.
Results from these experiments permitted calculation of EC50±SD (standard deviation or Std. Dev.), which is the effective concentration required to inhibit HCV replicon replication by 50%, and of CC50±SD (whenever possible), which is the concentration required that inhibits the proliferation of exponentially growing cells by 50%. EC50 and CC50±SD values were calculated respectively as the median of all the EC50, or CC50 values derived from the 3 individual dose-response curves. The selectivity index (SI), indicative of the therapeutic window of the compound was calculated as the ratio between CC50 and EC50.

The target of series [3] is organic anion transporting polypeptide 1B1 (OATP1B1) (Homo sapiens, UniProt Q9Y6L6). On the procedure: (§1) To determine whether the cycloundecadepsipeptide compounds of the present invention interact with hepatic transporters, experiments were carried out that compared the concentration-dependent inhibition towards the multidrug resistance associated protein 2 (MRP2), the organic anion transporting polypeptide 1B1 (OATP1B1), the bile salt export pump (BSEP) and the sodium-taurocholate cotransporting polypeptide (NTCP). These transporters are involved in the hepatobiliary circulation of endogenous compounds such as bile salts or bilirubin (for a review, see C. Pauli-Magnus et al, J. Hepatology, 2005, 43:342-357). Some of them also contribute to the elimination of xenobiotics.
OATP1B1 and NTCP assays were performed with Chinese hamster ovary (CHO) cells expressing these human uptake transporters. The amount of the transported probe substrate (estrone-3-sulfate and taurocholate for OATP1B1 and NTCP, respectively) was determined by liquid scintillation or fluorescent photometry after cell lysis.
(§2) The IC50 (defined as the concentration required for inhibiting the transport of the probe substrate by 50%, half maximal inhibitory concentration) of the compounds was derived from the concentration-response curve and compared to the IC50 of Debio 025 (IC50 ratio expressed as “fold Debio 025” in the tables).

Series [4] addresses T1, sodium-taurocholate cotransporting polypeptide (NTCP) (Homo sapiens, UniProt Q14973).
T1 sequence (Q14973 1-349): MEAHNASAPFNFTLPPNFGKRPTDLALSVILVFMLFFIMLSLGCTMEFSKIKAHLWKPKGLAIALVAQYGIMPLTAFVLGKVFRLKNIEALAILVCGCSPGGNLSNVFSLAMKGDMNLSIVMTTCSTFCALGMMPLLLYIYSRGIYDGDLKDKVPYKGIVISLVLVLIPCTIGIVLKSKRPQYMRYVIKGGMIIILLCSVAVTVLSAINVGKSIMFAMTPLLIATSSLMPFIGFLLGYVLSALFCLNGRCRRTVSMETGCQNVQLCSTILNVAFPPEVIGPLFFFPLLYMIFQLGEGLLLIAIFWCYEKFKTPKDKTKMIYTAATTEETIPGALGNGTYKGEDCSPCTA
Put plainly: NTCP inhibition, taurocholate uptake in CHO cells. The note with it: for NTCP fold Debio 025: IC50 ratio compared to Debio 025; for IC50 / NTCP IC50: probe taurocholate, CHO cells. It is filed as in vitro ADME.

Series [5] has as its target multidrug resistance associated protein 2 (MRP2) (Homo sapiens, UniProt Q92887). Here is the method:
as §1
(§3) MRP2 and BSEP were expressed by SOLVO Biotechnology in Spodoptera frugiperda (Sf9) ovarian cells, by infecting the insect cells with a recombinant baculovirus. The inhibition of the transport of the radioactive probe substrates (estradiol-17-beta-glucuronide and taurocholate for MRP2 and BSEP, respectively) into inside-out membrane vesicles, containing the transporter, was measured by scintillation counting.
as §2

The target in series [6] is bile salt export pump (BSEP) (Homo sapiens, UniProt O95342). The conditions noted are these: for BSEP fold Debio 025: IC50 ratio compared to Debio 025. Here is the method:
as §1, §3, §2

In series [7] the test system is Concanavalin-A-induced T-cell proliferation. Put plainly: Concanavalin-A-induced T-cell proliferation assay (immunosuppression). It is filed as cell-based. The conditions noted are these: inhibition of Concanavalin-A-induced T-cell proliferation. On the procedure:
To determine whether the cycloundecadepsipepide compounds of the present invention have a non-immunosuppression activity, experiments were carried out that compared the dose-dependent inhibition of Concanavalin-A-induced T-cell proliferation (see Table 2).
The method of the assays were performed as described by Dayton et al. (1992. Mol. Pharmacol. 41. 671-676) and Mishell et al. (1980. Cell proliferation in selected methods in cellular immunology, V, XXIX, W.H. Freeman Co., San Francisco, Calif. 153-160).

As usually defined, the EC50 is the concentration at which the effect is half-maximal. High values mean lower potency in that assay, low ones higher potency in that assay. For orientation: CC50 means the concentration giving 50% cytotoxicity. A low value points to greater toxicity to the cells. Broadly, the IC50 is the concentration that inhibits the measured activity by half.

Molecules are shown by their SMILES. Square brackets hold non-standard residues; d marks the D form. Peptide text beside a SMILES is read from it. MeBmt = C/C=C/C[C@@H](C)[C@@H](O)[C@H](NC)C(=O)O; NEtVal = CCN[C@H](C(=O)O)C(C)C; NMeL = CN[C@@H](CC(C)C)C(=O)O; NMeV = CN[C@H](C(=O)O)C(C)C; dHiv = CC(C)[C@@H](O)C(=O)O; dNMeA = CN[C@H](C)C(=O)O; Abu = CC[C@H](N)C(=O)O

Sequence of bile salt export pump (BSEP) (O95342 whole entry): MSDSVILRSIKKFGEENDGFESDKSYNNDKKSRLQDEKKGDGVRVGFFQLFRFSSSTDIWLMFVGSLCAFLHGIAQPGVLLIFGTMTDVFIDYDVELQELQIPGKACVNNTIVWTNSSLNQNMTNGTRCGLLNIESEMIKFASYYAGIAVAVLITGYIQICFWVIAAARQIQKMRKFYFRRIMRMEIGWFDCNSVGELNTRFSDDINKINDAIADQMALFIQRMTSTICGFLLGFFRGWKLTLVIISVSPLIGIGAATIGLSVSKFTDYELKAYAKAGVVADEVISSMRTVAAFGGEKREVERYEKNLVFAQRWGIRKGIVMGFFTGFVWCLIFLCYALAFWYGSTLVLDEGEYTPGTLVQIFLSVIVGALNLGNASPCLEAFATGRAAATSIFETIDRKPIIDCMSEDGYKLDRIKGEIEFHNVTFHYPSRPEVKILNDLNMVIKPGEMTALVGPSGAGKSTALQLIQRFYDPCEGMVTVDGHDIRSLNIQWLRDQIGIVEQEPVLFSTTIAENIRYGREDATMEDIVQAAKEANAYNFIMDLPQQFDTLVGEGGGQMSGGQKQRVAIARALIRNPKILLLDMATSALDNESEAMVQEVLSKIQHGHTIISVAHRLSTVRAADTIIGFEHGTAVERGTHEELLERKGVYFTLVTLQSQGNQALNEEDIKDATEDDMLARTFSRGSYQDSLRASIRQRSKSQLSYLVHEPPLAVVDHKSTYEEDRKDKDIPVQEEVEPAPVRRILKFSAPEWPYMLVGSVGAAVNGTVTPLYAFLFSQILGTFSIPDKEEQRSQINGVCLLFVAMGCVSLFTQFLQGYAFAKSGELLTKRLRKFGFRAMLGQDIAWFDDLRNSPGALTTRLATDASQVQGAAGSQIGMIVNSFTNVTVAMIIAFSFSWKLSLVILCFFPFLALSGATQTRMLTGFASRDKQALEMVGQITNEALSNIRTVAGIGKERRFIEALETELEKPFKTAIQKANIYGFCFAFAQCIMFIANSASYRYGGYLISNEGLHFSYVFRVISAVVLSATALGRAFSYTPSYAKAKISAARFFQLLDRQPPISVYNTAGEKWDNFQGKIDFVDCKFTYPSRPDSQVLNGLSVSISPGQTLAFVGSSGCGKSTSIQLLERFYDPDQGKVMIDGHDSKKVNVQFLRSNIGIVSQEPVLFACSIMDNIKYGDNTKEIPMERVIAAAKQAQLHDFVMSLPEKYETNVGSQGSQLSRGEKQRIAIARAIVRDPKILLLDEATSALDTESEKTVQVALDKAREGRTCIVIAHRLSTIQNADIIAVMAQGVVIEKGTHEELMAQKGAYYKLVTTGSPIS
Sequence of organic anion transporting polypeptide 1B1 (OATP1B1) (Q9Y6L6 whole entry): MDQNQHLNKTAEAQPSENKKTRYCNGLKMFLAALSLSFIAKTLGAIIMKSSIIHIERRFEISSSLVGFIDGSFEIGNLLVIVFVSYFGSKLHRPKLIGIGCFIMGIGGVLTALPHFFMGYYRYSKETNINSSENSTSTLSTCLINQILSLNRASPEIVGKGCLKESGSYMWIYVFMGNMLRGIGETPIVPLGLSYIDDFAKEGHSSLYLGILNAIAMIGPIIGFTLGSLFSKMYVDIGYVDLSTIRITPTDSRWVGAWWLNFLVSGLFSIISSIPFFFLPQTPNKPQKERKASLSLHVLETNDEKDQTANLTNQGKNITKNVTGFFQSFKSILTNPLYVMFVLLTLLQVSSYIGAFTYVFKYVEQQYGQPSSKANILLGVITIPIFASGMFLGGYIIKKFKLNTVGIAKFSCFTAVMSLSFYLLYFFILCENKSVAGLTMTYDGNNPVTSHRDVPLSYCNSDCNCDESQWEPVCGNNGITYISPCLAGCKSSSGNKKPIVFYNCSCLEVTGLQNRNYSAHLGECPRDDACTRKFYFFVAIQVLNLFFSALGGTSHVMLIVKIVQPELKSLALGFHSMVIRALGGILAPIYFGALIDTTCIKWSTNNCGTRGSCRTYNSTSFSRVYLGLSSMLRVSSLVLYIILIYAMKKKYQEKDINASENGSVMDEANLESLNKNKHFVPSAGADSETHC
Sequence of multidrug resistance associated protein 2 (MRP2) (Q92887 whole entry): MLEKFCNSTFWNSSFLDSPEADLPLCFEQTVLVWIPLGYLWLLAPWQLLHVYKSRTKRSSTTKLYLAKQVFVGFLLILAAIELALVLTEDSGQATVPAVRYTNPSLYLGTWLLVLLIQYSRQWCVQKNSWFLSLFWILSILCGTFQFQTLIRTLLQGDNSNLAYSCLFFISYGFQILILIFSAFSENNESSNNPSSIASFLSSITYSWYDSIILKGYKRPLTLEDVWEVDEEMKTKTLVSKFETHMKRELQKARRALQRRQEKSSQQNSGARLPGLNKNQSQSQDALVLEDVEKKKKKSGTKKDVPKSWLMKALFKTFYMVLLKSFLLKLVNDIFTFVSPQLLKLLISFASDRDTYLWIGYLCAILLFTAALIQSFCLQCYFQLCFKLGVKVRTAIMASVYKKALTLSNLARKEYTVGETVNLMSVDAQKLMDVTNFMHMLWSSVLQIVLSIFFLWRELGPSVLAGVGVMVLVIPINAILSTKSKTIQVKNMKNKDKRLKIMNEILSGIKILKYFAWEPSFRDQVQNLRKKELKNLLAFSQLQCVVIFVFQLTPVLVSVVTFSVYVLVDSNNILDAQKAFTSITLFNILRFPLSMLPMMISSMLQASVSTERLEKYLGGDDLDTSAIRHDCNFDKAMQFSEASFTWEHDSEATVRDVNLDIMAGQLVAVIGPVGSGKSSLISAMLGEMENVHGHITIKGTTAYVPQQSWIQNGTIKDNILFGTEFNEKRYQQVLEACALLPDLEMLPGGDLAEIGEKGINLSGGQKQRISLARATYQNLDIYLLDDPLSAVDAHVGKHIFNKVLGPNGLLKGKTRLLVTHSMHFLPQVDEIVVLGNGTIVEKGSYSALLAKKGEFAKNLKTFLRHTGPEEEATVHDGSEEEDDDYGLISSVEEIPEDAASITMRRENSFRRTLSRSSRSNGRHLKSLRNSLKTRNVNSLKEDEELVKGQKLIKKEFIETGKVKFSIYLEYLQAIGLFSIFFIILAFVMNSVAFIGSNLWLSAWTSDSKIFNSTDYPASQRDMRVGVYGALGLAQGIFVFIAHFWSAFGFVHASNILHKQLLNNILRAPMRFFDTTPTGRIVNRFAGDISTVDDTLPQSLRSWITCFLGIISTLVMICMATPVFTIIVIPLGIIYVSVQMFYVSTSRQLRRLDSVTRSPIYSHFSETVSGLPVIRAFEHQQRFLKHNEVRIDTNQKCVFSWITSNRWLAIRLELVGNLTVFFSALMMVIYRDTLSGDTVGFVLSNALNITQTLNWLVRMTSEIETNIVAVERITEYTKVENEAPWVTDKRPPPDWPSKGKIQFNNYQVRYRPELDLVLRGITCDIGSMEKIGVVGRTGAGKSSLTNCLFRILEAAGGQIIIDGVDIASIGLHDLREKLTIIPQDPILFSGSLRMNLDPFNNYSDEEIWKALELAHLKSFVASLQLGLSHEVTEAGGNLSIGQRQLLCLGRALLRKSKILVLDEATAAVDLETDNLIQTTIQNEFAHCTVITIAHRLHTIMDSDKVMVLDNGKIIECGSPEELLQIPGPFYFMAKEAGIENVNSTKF

`C/C=C/C[C@@H](C)[C@@H](O)[C@H]1C(=O)N[C@@H](CC)C(=O)N(C)[C@H](C)C(=O)N(C)[C@@H](C(C)C)C(=O)N[C@@H](CC(C)C)C(=O)N(C)[C@@H](CC(C)C)C(=O)N[C@@H](C)C(=O)O[C@H](C(C)C)C(=O)N(C)[C@@H](CC(C)C)C(=O)N[C@@H](CC(C)C)C(=O)N(C)[C@@H](C(C)C)C(=O)N1C` [(Id), cyclo-(MeBmt-Abu-D-MeAla-MeVal-Leu-MeLeu-Ala-D-Hiv-MeLeu-Leu-MeVal)] (cyclo(A[dHiv][NMeL]L[NMeV][MeBmt][Abu][dNMeA][NMeV]L[NMeL])) gave an EC50 in series [1] of 25 nM. In addition, the half-maximal cytotoxic concentration (CC50) in series [2] worked out at 44400 nM. In addition, the IC50 in series [3] is 7900 nM; in series [4] it was 2500 nM; in series [6] it was 570 nM; in series [7] it was 1440 nM. Besides, the “OATP1B fold Debio 025” value in series [3] came out at 0.05. Also, the “NTCP fold Debio 025” value in series [4] turned out to be 1.2. In series [5], the “MRP2 IC50” value is recorded as “n.i”. The “BSEP fold Debio 025” value in series [6] worked out at 0.42.
On to `C/C=C/C[C@@H](C)[C@@H](O)[C@H]1C(=O)N[C@@H](C(C)C)C(=O)N(C)[C@H](C)C(=O)N(CC)[C@@H](C(C)C)C(=O)N[C@@H](CC(C)C)C(=O)N(C)[C@@H](CC(C)C)C(=O)N[C@@H](C)C(=O)O[C@H](C(C)C)C(=O)N(C)[C@@H](CC(C)C)C(=O)N[C@@H](CC(C)C)C(=O)N(C)[C@@H](C(C)C)C(=O)N1C` [(Ih), cyclo-(MeBmt-Val-D-MeAla-EtVal-Leu-MeLeu-Ala-D-Hiv-MeLeu-Leu-MeVal)] (cyclo(A[dHiv][NMeL]L[NMeV][MeBmt]V[dNMeA][NEtVal]L[NMeL])), for which, in series [1], the EC50 was 22 nM. In series [2], it took 20500 nM to reach half-maximal cytotoxicity (CC50). For the same compound, the IC50 in series [3] was found to be 12000 nM; in series [6], 300 nM; in series [7], 1740 nM. Further, the “OATP1B fold Debio 025” value in series [3] turned out to be 0.04. For the same compound, in series [4], the “NTCP IC50” value is “n.i”. Besides, the “MRP2 IC50” value in series [5] is listed as “n.i”. Moreover, the “BSEP fold Debio 025” value in series [6] stood at 0.80.
In series [1], `C/C=C/C[C@@H](C)[C@@H](O)[C@H]1C(=O)N[C@@H](CC)C(=O)N(C)[C@H](C)C(=O)N(C)[C@@H](C(C)C)C(=O)N[C@@H](CC(C)C)C(=O)N(C)[C@@H](CC(C)C)C(=O)NCC(=O)O[C@H](C(C)C)C(=O)N(C)[C@@H](CC(C)C)C(=O)N[C@@H](CC(C)C)C(=O)N(C)[C@@H](C(C)C)C(=O)N1C` [(Ia), cyclo-(MeBmt-Abu-D-MeAla-MeVal-Leu-MeLeu-Gly-D-Hiv-MeLeu-Leu-MeVal)] (cyclo([Abu][dNMeA][NMeV]L[NMeL]G[dHiv][NMeL]L[NMeV][MeBmt])) showed a 50% effective concentration (EC50) of 34 nM. Moreover, half-maximal cytotoxicity in series [2] (CC50) was put at 60100 nM. In addition, in series [3], the midpoint of inhibition, the IC50, lay at 18000 nM and the “OATP1B fold Debio 025” value turned out to be 0.02. Moreover, in series [4], the “NTCP IC50” value was “n.i”. Besides, the “MRP2 IC50” value in series [5] is “n.i”. Moreover, in series [6], the half-maximal inhibitory concentration (IC50) came out at 400 nM and the “BSEP fold Debio 025” value worked out at 0.60. The compound further had an IC50 in series [7] of 2000 nM.
In series [1], `C/C=C/C[C@@H](C)[C@@H](O)[C@H]1C(=O)N[C@@H](CC)C(=O)N(C)[C@H](C)C(=O)N(CC)[C@@H](C(C)C)C(=O)N[C@@H](CC(C)C)C(=O)N(C)[C@@H](CC(C)C)C(=O)N[C@@H](C)C(=O)O[C@H](C(C)C)C(=O)N(C)[C@@H](CC(C)C)C(=O)N[C@@H](CC(C)C)C(=O)N(C)[C@@H](C(C)C)C(=O)N1C` [(Ib), cyclo-(MeBmt-Abu-D-MeAla-EtVal-Leu-MeLeu-Ala-D-Hiv-MeLeu-Leu-MeVal)] (cyclo(A[dHiv][NMeL]L[NMeV][MeBmt][Abu][dNMeA][NEtVal]L[NMeL])) returned a half-maximal effective concentration (EC50) of 37 nM. Further, the CC50 in series [2] stood at 52300 nM. The IC50 stood at 6200 nM in series [3], 65000 nM in series [4], 150 nM in series [6] and 9440 nM in series [7]. In addition, in series [3], the “OATP1B fold Debio 025” value is on record as 0.07. Besides, the “NTCP fold Debio 025” value in series [4] was determined as 0.05. Also, the “MRP2 IC50” value in series [5] is “n.i”. The “BSEP fold Debio 025” value in series [6] stood at 1.6.

These data come from US8501683B2, “Cycloundecadepsipeptide compounds and use of said compounds as a medicament” (priority 2008, dated 2013).
